Laboratory results from patent publication US20150306107A1, “SAA Derivative Compound Restores eNOS And Inhibits Oxidative Stress-Induced A Diseases In Hypoxia” (JANSFAT BIOTECHNOLOGY CO., LTD., priority 2014, published 2015).

Columns and labels:
ROCK II = assay: Western blotting of ROCK II in lung tissue after long-term hypoxia; type: in vivo, rat; conditions: hypoxia 21 days; hypoxia 144.7±12.6%
PKG = assay: Western blotting of PKG in lung tissue after long-term hypoxia; type: in vivo, rat; conditions: hypoxia 21 days
Protocol: Whole right lung tissues of hypoxia-treated and untreated rats were isolated and cut into small strips and placed into an extraction buffer (Tris 10 mM, pH 7.0, NaCl 140 mM, PMSF 2 mM, DTT 5 mM, NP-40 0.5%, pepstatin A 0.05 mM and leupeptin 0.2 mM) for protein extraction, and then centrifuged at 12,500 g for 30 min. To measure the expression levels of the proteins, the total proteins were extracted and Western blotting analysis was performed as described previously (Bivalacqua T J, et al., 2013, TJ PLoSONE 8: e68028. doi:10.1371/journal. pone.0068028). Briefly, the protein extract was boiled to a ratio of 4:1 with a sample buffer (Tris 100 mM, pH 6.8, glycerol 20%, SDS 4% and bromophenol blue 0.2%). Electrophoresis was performed using 10% SDS-polyacrylamide gel (2 hr, 100 V, 40 mA, […] protein per lane). Separated proteins were transferred to PVDF membranes treated with 5% fat-free milk powder to block the nonspecific IgGs (90 min, 100 V) and incubated for one hour with a specific protein antibody. The blot was then incubated with anti-mouse or anti-goat IgG linked to alkaline phosphatase (1:1000) for 1 hr. Immunoreactive bands were visualized using horseradish peroxidase-conjugated secondary antibodies and subsequent electrochemiluminescence (ECL) detection (GE Healthcare Bio-Sciences Corp., Piscataway, N.J., U.S.A.). […]

hypoxic rats [1] = assay: Pulmonary artery wall thickness and muscularization (HE staining) after long-term hypoxia; type: in vivo, rat
Protocol: (§1) The right lobes of the rat lungs and heart of six rats from each group were cut and soaked in formalin, dehydrated through graded alcohols, and embedded in paraffin wax. The lung tissue specimens fixed with formalin (4%) were embedded in paraffin for one hour at 4° C., cut into 4-μm-thick sections, and subjected to H&E staining before examination by light microscope. In our histopathological study, we measured the thickening of the medial wall of the small intrapulmonary arteries under an Eclipse TE2000-S (Nikon) microscope. In the heart tissues, the 4-μm-thick paraffin sections were cut from paraffin-embedded tissue blocks and de-paraffinized by immersion in xylene and rehydrated as previously described (Bivalacqua T J, et al., PLoSONE 8: e68028. doi:10.1371/journal. pone.0068028). The slices were then dyed with H&E. After gently rinsing with water, each slide was dehydrated through graded alcohols and finally soaked in xylene twice. The relative cardiac weight of right ventricle (RV)/[left ventricle (LV)+intraventricular septum (S)] ratio (i.e. right heart index) was calculated using right ventricle/left ventricle+septum (RV/LV+S). Measurements were obtained with Histolab software (Microvision Instruments, Evry, France).

eNOS [2] = assay: Western blotting of eNOS expression in isolated rat pulmonary artery ring, short-term (acute) hypoxia or normoxia; type: cell-based; conditions: isolated pulmonary artery, acute hypoxia
Protocol: (§2) In our in vitro short-term experiment, isolated rat pulmonary artery was grown under normoxia (20% O2) or hypoxia (1% O2) at 37° C. for 24 hrs as was previously done (Wu BN, et al. Int J Immunopathol Pharmacol 24:925, 2011). The heart weight and body weight ratio (HW/BW) of the rats treated with one of SPAAX-1, SPAAX-1 RX complex, Sildenafil or Sildenafil RX complex each measured on the 21st hypoxic day. All animal care and the experimental protocols of this study were approved by the Animal Care and Use Committee of the Kaohsiung Medical University. Male Wistar rats (200-250 g), provided by the National Laboratory Animal Breeding and Research Center (Taipei, Taiwan), were housed under constant temperature and controlled illumination. Food and water were available ad libitum.
(§3) Whole right lung tissues of hypoxia-treated and untreated rats were isolated and cut into small strips and placed into an extraction buffer (Tris 10 mM, pH 7.0, NaCl 140 mM, PMSF 2 mM, DTT 5 mM, NP-40 0.5%, pepstatin A 0.05 mM and leupeptin 0.2 mM) for protein extraction, and then centrifuged at 12,500 g for 30 min. To measure the expression levels of the proteins, the total proteins were extracted and Western blotting analysis was performed as described previously (Bivalacqua T J, et al., 2013, TJ PLoSONE 8: e68028. doi:10.1371/journal. pone.0068028). Briefly, the protein extract was boiled to a ratio of 4:1 with a sample buffer (Tris 100 mM, pH 6.8, glycerol 20%, SDS 4% and bromophenol blue 0.2%). Electrophoresis was performed using 10% SDS-polyacrylamide gel (2 hr, 100 V, 40 mA, […] protein per lane). Separated proteins were transferred to PVDF membranes treated with 5% fat-free milk powder to block the nonspecific IgGs (90 min, 100 V) and incubated for one hour with a specific protein antibody. The blot was then incubated with anti-mouse or anti-goat IgG linked to alkaline phosphatase (1:1000) for 1 hr. Immunoreactive bands were visualized using horseradish peroxidase-conjugated secondary antibodies and subsequent electrochemiluminescence (ECL) detection (GE Healthcare Bio-Sciences Corp., Piscataway, N.J., U.S.A.). Mouse or rabbit monoclonal antibody of eNOS (Upstate, N.Y., U.S.A.), sGCα (Sigma-Adrich, CA, U.S.A., sGCβ (Santa Cruz, Calif., U.S.A.), PDE-5A (BD Tansduction, San Jose, Calif., U.S.A.), PKG (Calbiochem, San Diego, Calif., U.S.A.) ROCKII (Upstate, N.Y., U.S.A.), RhoA (Santa Cruze, Calif., U.S.A.) and the loading control protein β-actin (Sigma-Adrich, MO, U.S.A.) were used in our Western blot analysis.
(§4) The Western blotting analysis measurements were performed as per lung tissue.

hypoxic rats [3] = assay: Right ventricular hypertrophy (RV/LV+S, right heart index) after long-term hypoxia; type: in vivo, rat; conditions: compared to the hypoxia state
Protocol: as §1

eNOS [4] = assay: Western blotting of eNOS in lung tissue after long-term hypoxia; type: in vivo, rat; conditions: hypoxia 21 days; compared to normoxia control
PDE5A = conditions: hypoxia 21 days; % of the normal level; hypoxia 43.8±12.6%
hypoxic rats [5] = assay: Hemodynamics of rats with hypoxic PAH, chronic hypoxia 21 days; type: in vivo, rat; conditions: 5 mg/kg/day, p.o.
Excerpt: Int J Immunopathol Pharmacol 24:925, 2011). The heart weight and body weight ratio (HW/BW) of the rats treated with one of […] complex, Sildenafil or Sildenafil RX complex each measured on the 21st hypoxic day. All animal care and the experimental protocols of this study were approved by the Animal Care and Use Committee of the Kaohsiung Medical University. Male Wistar rats (200-250 g), provided by the National Laboratory Animal Breeding and Research Center (Taipei, Taiwan), were housed under constant temperature and controlled illumination. Food and water were available ad libitum. Normoxic rats were housed in room temperature air at normal atmospheric pressure (760 mm Hg). […] After completion of the exposure, tissues were prepared as indicated for contraction measurements, Western blot analysis, RNA extraction, or morphological analysis. […] Their breathing was normal and their body temperature was maintained at 37° C. […] The animals were then sacrificed by the administration of an overdose of urethane.

[6] = test system: reactive oxygen species (ROS) of lung tissues; conditions: long-term hypoxia
Protocol: In our in vivo hypoxic experiments, 10-week old male Wistar rats were equally divided into four groups: a normoxia group, a hypoxia group, a hypoxia+SPAAX-1 or SPAAX-1 RX complex group, and a hypoxia+Sildenafil or Sildenafil RX complex group. All the rats were maintained on a 12-h light/12-hr dark cycle at 25±1° C. and were provided with food and water ad libitum. The normoxia group was housed in standard normoxic conditions and the other three treated groups were continuously housed in a hypoxic chamber (10% O2) for 21 days, except for a 30-min interval each day when the chamber was cleaned (FIG. 2). During which, a normoxic gas mixture was prepared from compressed air.
Pulmonary ROS was measured using 2′-7′-dichloro-fluorescein (H2DCF-DA, Molecular Probe, USA). Briefly, 10 μl of lung tissue extract was diluted 100-fold with cold PBS and labelled with 5 μmol/L 2′-7′-dichlorofluorescein, and the mixture was incubated at 37° C. for 30 minutes and put in a centrifuge (1000 rpm) for 5 min. Fluorescence was measured at 485 nm excitation and 530 nm emission to determine the concentration of H2O2 (FLUOstar Galaxy, Germany).

VEGF [7] = assay: Western blotting of VEGF expression in isolated rat pulmonary artery ring, short-term (acute) hypoxia; type: cell-based; conditions: isolated pulmonary artery
Protocol: as §2, §3, §4

VEGF [8] = assay: Immunohistochemistry of VEGF in pulmonary artery wall after long-term hypoxia; type: in vivo, rat
Protocol: (§5) For histological analysis, the rat pulmonary right lung sections or pulmonary artery were fixed in 4% formaldehyde for 1 hour at 4° C. After washing with phosphate buffer saline (PBS), they were sent for paraffin-embedded serial-sections. Serial cross-sections 7 μm thick were obtained from the cross-section of each pulmonary artery. Tissue sections were deparaffinized and rehydrated in an ethanol series. After tissue rehydration, endogenous peroxidase activity was quenched with 3% hydrogen peroxide for 30 minutes, and the sections were gently washed in PBS. Non-specific binding was blocked by incubation with 1% nonimmune bovine serum albumin (BSA) in PBS for 30 minutes at room temperature.
(§6) The tissue sections were incubated for 1 hour at room temperature with antibody against VEGF (ab1442, Millipore) or against eNOS (ab5589, Abcam) diluted 1:200 in PBS with 1% BSA. After being washed with PBS, the sections were incubated for 1 hour at room temperature with biotinylated goat antibody against rabbit (Dako, E-0432) and diluted 1:200 in PBS for 30 minutes at room temperature. The reaction was visualized by the addition of 3-3-diaminobenzidine (DAB) in a working solution of DAB substrate kit for peroxidase (vector lab, SK-4100) at room temperature for 5 minutes. The sections were washed in PBS for 10 minutes between each step, and counterstained with haematoxylin. […]

NOx in lung tissue = conditions: 21 days of hypoxia; control group 100%, hypoxia 59.8±3.7%
Protocol: All the rats were maintained on a 12-h light/12-hr dark cycle at 25±1° C. and were provided with food and water ad libitum. The normoxia group was housed in standard normoxic conditions and the other three treated groups were continuously housed in a hypoxic chamber (10% O2) for 21 days, except for a 30-min interval each day when the chamber was cleaned (FIG. 2). During which, a normoxic gas mixture was prepared from compressed air.
Production of NO, represented by its metabolite nitrate+nitrite (NOx), in lung tissue extracts was determined using the Griess method (Chung H H et al, Br J Pharmacol 160: 971, 2010; Vascular Pharmacology 53: 239, 2010). The three step Greiss test converts nitrate (NO3^−) into nitrite (NO2^−), resulting in a total NO2^− concentration from a standard calibration curve. The lung tissue extracts were homogenized, washed with PBS and incubated in a lysis buffer in addition to a protease inhibitor cocktail (Sigma, St. Louis, Mo.) to obtain the extracts of lung proteins. […] The samples were then incubated (25° C, 10 min) with Griess reagent [N-(1-naphthyl)-ethylenediamine: 0.2% (w/v), sulphanilamide: 2% (w/v), solubilized in double-distilled water: 95% and phosphoric acid: 5% (v/v)] and the absorbance measured at 540 nm. […]

sGCα1 [9] = assay: Western blotting of sGCα1 in lung tissue after long-term hypoxia; type: in vivo, rat; conditions: hypoxia 21 days; compared to normoxia control
eNOS [10] = assay: Immunohistochemistry of eNOS in pulmonary artery wall after long-term hypoxia; type: in vivo, rat
Protocol: as §5, §6

sGCα1 [11] = assay: Western blotting of sGCα1 expression in isolated pulmonary artery, short-term hypoxia; type: cell-based, rat
Protocol: as §2
Whole right lung tissues of hypoxia-treated and untreated rats were isolated and cut into small strips and placed into an extraction buffer (Tris 10 mM, pH 7.0, NaCl 140 mM, PMSF 2 mM, DTT 5 mM, NP-40 0.5%, pepstatin A 0.05 mM and leupeptin 0.2 mM) for protein extraction, and then centrifuged at 12,500 g for 30 min. To measure the expression levels of the proteins, the total proteins were extracted and Western blotting analysis was performed as described previously (Bivalacqua T J, et al., 2013, TJ PLoSONE 8: e68028. doi:10.1371/journal. pone.0068028). […]

VEGF [12] = assay: Western blotting of VEGF in lung tissue after long-term hypoxia; type: in vivo, rat; conditions: hypoxia 21 days; hypoxia 168.9±24.6%
eNOS [13] = assay: Immunohistochemistry of eNOS in isolated pulmonary artery after short-term hypoxia; type: cell-based, rat; conditions: short-term acute hypoxia; 40, 80 μM
Protocol: as §2
(§7) For histological analysis, the rat pulmonary right lung sections or pulmonary artery were fixed in 4% formaldehyde for 1 hour at 4° C. After washing with phosphate buffer saline (PBS), they were sent for paraffin-embedded serial-sections. Serial cross-sections 7 μm thick were obtained from the cross-section of each pulmonary artery. Tissue sections were deparaffinized and rehydrated in an ethanol series. After tissue rehydration, endogenous peroxidase activity was quenched with 3% hydrogen peroxide for 30 minutes, and the sections were gently washed in PBS. […]

VEGF [14] = assay: Immunohistochemistry of VEGF in isolated pulmonary artery after short-term hypoxia; type: cell-based, rat; conditions: short-term acute hypoxia; 40, 80 μM
Protocol: as §2, §7

Molecule	ROCKII expression in lung tissue (ROCK II)	PKG expression in lung tissue (PKG)	hypoxia-induced pulmonary artery wall thickness (hypoxic rats [1]; hypoxia 21 days, 5 mg/kg/day, hypoxia 165.8±5.4%)	muscularizations of distal pulmonary artery (HE staining) (hypoxic rats [1]; hypoxic rats, versus vehicle only)	eNOS in acute hypoxia (eNOS [2])	thickness of Right ventricular (hypoxic rats [3])	eNOS expression in lung tissue (eNOS [4])	PDE5A expression in lung tissue (PDE5A)	BW (body weight) (hypoxic rats [5])	MPAP (mean pulmonary arterial pressure) (hypoxic rats [5]; normoxia 12.9 ± 0.9, hypoxia 26.5 ± 0.6)	hypoxia-induced increase of dichlorofluorescein (ROS of lung tissues) [6]	VEGF in acute hypoxia (VEGF [7])	VEGF immunostaining reactivity of pulmonary artery (VEGF [8])	levels of NOx in lung tissue (NOx in lung tissue)	sGCα1 expression in lung tissue (sGCα1 [9])	eNOS immunostaining reactivity of pulmonary artery (eNOS [10])	SGC-a in hypoxia (sGCα1 [11])	VEGF expression in lung tissue (VEGF [12])	IHC of eNOS in isolated pulmonary artery (eNOS [13])	IHC of VEGF in isolated pulmonary artery (VEGF [14])
CCCc1nn(C)c2c(=O)[nH]c(-c3cc(S(=O)(=O)N4CCN(C)CC4)ccc3OCC)nc12.O=C1OC(C(O)CO)C(O)=C1O [Sildenafil ascorbate complex]	97.4±10.9%	68.7±3.7%	inhibited	significantly lower	restored	reduced	102.6±7.7%	109.0±3.8%	275.1 ± 10.4 g	19.8±0.7 mmHg	reduced	inhibited	reduced	84.5±14.2%	72.0±4.7%	restored the decay of eNOS	neither SPAAX-1 ascorbate complex nor Sildenafil ascorbate complex significantly affected	125.7±22.5%	–	–
L-sodium ascorbate+L-ascorbic acid buffer [ascorbic/ascorbate buffer]	–	–	–	–	–	–	–	–	–	–	–	–	–	–	–	–	–	–	reduced	reduced
